pIC50: −log10 of the molar value.
What was measured:
[1] = system: T1, Butyrylcholine esterase (BChE); assay: Ellman assay with S-butyrylthiocholine iodide in larval lysate; format: biochemical, Aedes aegypti
T1 construct: larval lysate (4th instar), native enzyme activity

[2] = system: T1, Butyrylcholine esterase (BChE); assay: Ellman assay in larval lysate; Michaelis-Menten and Lineweaver-Burk kinetics; format: biochemical, Aedes aegypti

Row | Compound | pIC50 [1] | pIC50 [2]
1 | CCN(C)C(=O)Oc1cccc([C@H](C)N(C)C)c1 [rivastigmine] | 5.30 | 
2 | COc1cc(/C=C/C(=O)CC(=O)/C=C/c2ccc(O)c(OC)c2)ccc1O [curcumin] |  | 3.70
